No end group written: not given here.
Key:
human GLP-1 receptor = target: T1, human GLP-1 receptor (Homo sapiens, UniProt P43220); experiment: In vitro potency assay (CRE-BLAM fluorescence assay); assay type: cell-based; details: for In vitro activity relative to Val^8-GLP-1(7-37)OH: from EC50, HEK-293 Aurora CRE-BLAM cells, Val^8-GLP-1(7-37)OH control = 1; for potency higher than Val^8-GLP-1(7-37)OH: in vitro potency, approximate
T1 construct: expressed in transfected cells; host or cells: HEK-293 Aurora CRE-BLAM cells
Excerpt: The assay is discussed in more detail on page 17 and in example 3.
These HEK-293 cells have stably integrated a DNA vector having a cAMP response element (CRE) driving expression of the β-lactamase (BLAM) gene. […] The assay is further described in Zlokarnik, et al. (1998) Science 279:84-88 (See also Example 3).
The day after seeding, the medium is replaced with plasma free medium.

[1] = cited from earlier work

T1 sequence (P43220 24-463): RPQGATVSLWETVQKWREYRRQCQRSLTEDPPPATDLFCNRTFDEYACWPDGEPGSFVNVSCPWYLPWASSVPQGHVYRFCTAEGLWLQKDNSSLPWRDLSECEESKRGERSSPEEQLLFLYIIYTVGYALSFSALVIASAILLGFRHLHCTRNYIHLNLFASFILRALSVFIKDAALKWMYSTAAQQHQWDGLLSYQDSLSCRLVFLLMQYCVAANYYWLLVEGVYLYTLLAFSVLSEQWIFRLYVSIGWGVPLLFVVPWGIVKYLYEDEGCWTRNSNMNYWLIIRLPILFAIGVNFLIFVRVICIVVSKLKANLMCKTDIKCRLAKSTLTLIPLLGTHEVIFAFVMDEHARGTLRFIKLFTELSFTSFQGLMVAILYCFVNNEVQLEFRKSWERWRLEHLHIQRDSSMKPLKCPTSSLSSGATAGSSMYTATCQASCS

| Substance | In vitro activity relative to Val^8-GLP-1(7-37)OH (human GLP-1 receptor) | further results |
| --- | --- | --- |
| Exendin-4 [reference compound] | 4.5 | potency higher than Val^8-GLP-1(7-37)OH (human GLP-1 receptor): approximately 5 fold |
| GLP-1(7-37)OH | – | intact GLP-1 levels ([1]; 2.4 pmol/kg/min (Toft-Nielsen et al.)): ~22.5 picomolar; plasma levels of intact GLP-1 ([1]; continuous administration 0.75 pmol/kg/min for 180 min, last 120 min of treatment (Naslund et al.)): approximately 20 picomolar |
| Val^8-Lys^22-GLP-1(7-37)OH | 1.22 | – |
| Val^8-Leu^16-GLP-1(7-37)OH | 1.13 | – |
| Gly^8-GLP-1(7-37)OH (HGEGTFTSDVSSYLEGQAAKEFIAWLVKGRG-OH; UniProt P01275 98-128, looked up, variant A8G) [GLP-1 analog] | 1.67 | – |

More lines, main results first:

| In vitro activity relative to Val^8-GLP-1(7-37)OH (human GLP-1 receptor) | Substance | further results |
| --- | --- | --- |
| 1.06 | Val^8-GLP-1(7-36)NH2 | – |
| 1.73 | Val^8-Tyr^12-GLP-1(7-37)OH | – |
| 1.92 | Arg^34Lys^26-(N-ε-(γ-Glu(N-α-hexadecanoyl)))-GLP-1(7-37) [reference compound] | – |
| 1.47 | Val^8-Arg^26-GLP-1(7-37)OH | – |
| 1.07 | Val^8-Trp^12-GLP-1(7-37)OH | – |
| 3.33 | Val^8-Glu^22-GLP-1(7-37)OH | potency higher than Val^8-GLP-1(7-37)OH (human GLP-1 receptor): approximately 3 fold |
